Test results taken from PubChem BioAssay AID1286 (University of Pittsburgh Molecular Library Screening Center, 2008).
Results filed as inconclusive are left out. Activity calls are given as the source filed them. No rule for the calls is given here.

What follows are compounds tested against Serine/threonine-protein kinase D1 (Homo sapiens) (UniProt Q15139) (assay: inhibitors of human PKD1 kinase, confirmation, biochemical, fluorescence polarization, 140K library hits, repeat (AID 1286)). Conditions: at 10 µM, stronger effect = higher value.
Serine/threonine-protein kinase D1 (Homo sapiens), sequence (Q15139 whole entry, looked up): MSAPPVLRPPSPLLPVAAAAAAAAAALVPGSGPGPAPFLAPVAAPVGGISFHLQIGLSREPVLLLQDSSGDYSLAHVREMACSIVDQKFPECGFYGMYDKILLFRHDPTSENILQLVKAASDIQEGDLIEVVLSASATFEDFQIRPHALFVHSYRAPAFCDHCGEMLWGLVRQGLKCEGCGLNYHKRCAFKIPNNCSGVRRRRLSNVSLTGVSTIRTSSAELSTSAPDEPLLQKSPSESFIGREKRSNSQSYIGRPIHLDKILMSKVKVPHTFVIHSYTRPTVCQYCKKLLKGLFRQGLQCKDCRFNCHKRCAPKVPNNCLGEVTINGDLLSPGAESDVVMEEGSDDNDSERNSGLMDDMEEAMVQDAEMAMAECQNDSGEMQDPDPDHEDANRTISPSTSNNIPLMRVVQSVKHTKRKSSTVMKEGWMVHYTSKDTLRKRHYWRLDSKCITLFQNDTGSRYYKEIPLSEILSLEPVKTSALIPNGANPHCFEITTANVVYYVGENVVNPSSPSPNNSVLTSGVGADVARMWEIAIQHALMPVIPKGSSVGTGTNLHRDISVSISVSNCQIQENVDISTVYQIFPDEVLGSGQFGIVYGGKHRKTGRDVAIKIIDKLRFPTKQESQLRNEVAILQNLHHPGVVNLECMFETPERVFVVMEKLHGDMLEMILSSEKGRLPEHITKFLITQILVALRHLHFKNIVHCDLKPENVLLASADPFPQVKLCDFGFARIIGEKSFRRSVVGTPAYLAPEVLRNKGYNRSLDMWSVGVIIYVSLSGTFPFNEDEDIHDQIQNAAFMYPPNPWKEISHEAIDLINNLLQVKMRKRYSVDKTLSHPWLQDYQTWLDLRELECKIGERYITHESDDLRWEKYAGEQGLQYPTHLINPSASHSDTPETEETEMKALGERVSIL
With `Cc1cc2nc3c(=O)n(C4CCCCC4)c(=O)[nH]c3nc2cc1N` the inhibition was 21.6% (inactive).
With `O=C1CC(N2CCN(c3ccccc3Cl)CC2)C(=O)N1c1cccc(F)c1` (stereo unspecified) the inhibition was -6.73% (inactive).
`Clc1cncc(Cl)c1N/N=C/c1ccncc1` gave an inhibition of 77.4%.
In the case of `Cc1c(N/N=C(\C#N)C(=O)c2ccccc2)c(=O)n(-c2ccccc2)n1C`, the inhibition is reported as 12.8% (inactive).
With `Cc1c(N/N=C(\C#N)C(=O)c2ccc(Cl)cc2)c(=O)n(-c2ccccc2)n1C` the inhibition was 18% (inactive).
In the case of `Nc1nc2ccc([N+](=O)[O-])c(N)c2s1`, the inhibition is reported as 69.9%.
`COc1ccc2nc3sc(C(=O)NCCCN4CCc5ccccc5C4)cc3cc2c1` was tested, and the inhibition was 7.3% (inactive).
`O=C1CC(N2CCN(c3ccccc3Cl)CC2)C(=O)N1c1ccc(F)cc1` (stereo unspecified) was tested, and the inhibition was -3.22% (inactive).
For `CCOC(=O)c1[nH]c2cc(OC)c(OC)cc2c1NC(=O)CN1CCN(C)CC1`, the inhibition was 3.12% (inactive).
`COc1ccc(S(=O)(=O)N2CCC(n3cnc4cc(C(F)(F)F)ccc43)CC2)cc1` was tested, and the inhibition was 20.8% (inactive).
For `COc1ccccc1C(=O)NN1C(=O)C2C3C=CC(O3)C2C1=O` (stereo unspecified), the inhibition was -0.477% (inactive).
In the case of `O=C(Nc1ccsc1C(=O)NC1CC1)c1ccccc1`, the inhibition is reported as 9.43% (inactive).
`CS(=O)(=O)N1CCN(c2ccc(NC(=O)c3ccc(Br)o3)cc2)CC1` was tested, and the inhibition was -7.85% (inactive).
For `CCOc1cccc(C2C(C(=O)c3ccc(C)o3)=C(O)C(=O)N2c2nccs2)c1` (stereo unspecified), the inhibition was 73.4%.
With `CC(=O)Oc1cc(OC(C)=O)c2c(C)cc(=O)oc2c1` the inhibition was 68.1%.
With `CC(OC(=O)c1ccc(NS(=O)(=O)c2cccs2)cc1)C(=O)N(C)C1CCCCC1` (stereo unspecified) the inhibition was -4.35% (inactive).
`COC(=O)c1cccc2c1-c1ccccc1/C2=N/O` was tested, and the inhibition was 19.8% (inactive).
In the case of `O=C(c1cc(-c2ccccc2)nc2ccccc12)N1CCN(c2ccccn2)CC1`, the inhibition is reported as 0.468% (inactive).
`CN1CCN(c2cccc3c2C(=O)c2ccccc2C3=O)CC1` was tested, and the inhibition was 34.4% (inactive).
In the case of `O=C(Nc1cccc([N+](=O)[O-])c1)C12CC3CC(C1)CC(n1cnc([N+](=O)[O-])n1)(C3)C2`, the inhibition is reported as -4.73% (inactive).
`Cc1cc(NCCCN)nc(-c2ccccc2O)n1` gave an inhibition of 59.5%.
For `Cn1c(OCc2cccnc2)nc2c1c(=O)n(Cc1ccc(Br)cc1)c(=O)n2C`, the inhibition was -0.468% (inactive).
In the case of `Cc1ccc(NC(=O)CNc2ccc(Cl)cc2F)cc1`, the inhibition is reported as 0.85% (inactive).
`Cc1nn(C)c(C)c1N1C(=O)c2cccc3c(N)ccc(c23)C1=O` was tested, and the inhibition was 46.3% (inactive).
Compound `Cn1c(=O)c(NCCO)c2c3c(cccc31)C(=O)c1ccccc1-2` has an inhibition of 95.8%.
In the case of `Cc1c(C(=O)N/N=C/c2ccc(O)c(Br)c2)sc(N)c1C#N`, the inhibition is reported as 44.5% (inactive).
With `Nc1nc2ccccc2n1/N=C/c1cccnc1` the inhibition was 36.4% (inactive).
`Clc1ccc(Nc2ccc(-n3ccnc3)nn2)cc1Cl` was tested, and the inhibition was -1.8% (inactive).
In the case of `CCOC(=O)N1CCC(NS(=O)(=O)c2cc(Br)cc3c2N(C(=O)CC)CC3)CC1`, the inhibition is reported as -5.57% (inactive).
Work on `NC(N)=NC(=O)c1nc(Cl)c(N)nc1N` yielded an inhibition of 58.6%.
In the case of `Nc1nc2ccccc2n1/N=C/c1ccc([N+](=O)[O-])s1`, the inhibition is reported as 34.7% (inactive).
`O=C(Nc1ccccc1Cl)ON=C1c2ccccc2-c2ccccc21` was tested, and the inhibition was 14.4% (inactive).
With `Cc1ccc(C(=O)Cn2c(NCCO)nc3ccccc32)cc1` the inhibition was -5.32% (inactive).
For `O=C(O)C1CCN(c2ncccn2)CC1`, the inhibition was -5.12% (inactive).
With `Cc1ccc(C(=O)NNC2=Nc3cccc4cccc2c34)cc1` the inhibition was 6.45% (inactive).
For `CC1CCCC(C)N1C(=O)Cn1cc(/C=C2/C(=O)Nc3ccccc32)c2ccccc21` (stereo unspecified), the inhibition was 2.88% (inactive).
In the case of `COc1ccccc1/C=C1\SC(=S)N(CCC(=O)NC2=NCCS2)C1=O`, the inhibition is reported as -0.701% (inactive).
With `O=C1Nc2ccccc2/C1=C/c1cnc[nH]1` the inhibition was 28.3% (inactive).
With `CCC(=O)Nc1c2c(nn1-c1ccccc1C)CSC2` the inhibition was 58.1%.
With `Cc1[nH]nc2c1-c1nc3ccccc3nc1C(C)(C)C2` the inhibition was 40% (inactive).
With `CN1CCN(c2ccccc2NC(=O)c2ccc(-c3cccc([N+](=O)[O-])c3)o2)CC1` the inhibition was 7.36% (inactive).
In the case of `NC(=NCCc1c[nH]c2ccccc12)NS(=O)(=O)c1cc(F)ccc1F`, the inhibition is reported as 2.31% (inactive).
In the case of `Cn1c(=O)oc2cc(S(=O)(=O)N3CCN(Cc4ccc5c(c4)OCO5)CC3)ccc21`, the inhibition is reported as -1.91% (inactive).
With `Cn1c(=O)[nH]c(=O)c2c1nc(NC1CCCCC1)n2CC(=O)NC1CCCCC1` the inhibition was -11.5% (inactive).
`NC(=O)c1cn(C2OC(CO)C(O)C2O)c2ncnc(N)c12` (stereo unspecified) gave an inhibition of 90.3%.
`COC(=O)c1ccccc1OCC(=O)NC1CCCCC1` was tested, and the inhibition was -3.26% (inactive).
`CN(C)CCOc1ccc2c(c1)Sc1ccccc1CC2=O` was tested, and the inhibition was 8.37% (inactive).
With `CCOC(=O)N1CCN(c2cc(NCCC(=O)O)c3c4c(onc24)-c2ccccc2C3=O)CC1` the inhibition was 3.06% (inactive).
With `Cc1ccc(NC(=O)C2CCCN(S(=O)(=O)c3c(C)noc3C)C2)c(C)c1` (stereo unspecified) the inhibition was -2.05% (inactive).
In the case of `CC(=O)Nc1ccc2c(c1)c1ccccc1n2C(C)=O`, the inhibition is reported as 14.5% (inactive).
In the case of `CCOC(=O)c1cccc(NC(=O)CCS(=O)(=O)c2cccc3nsnc23)c1`, the inhibition is reported as 28.8% (inactive).
In the case of `Cc1occc1C(=O)NC(C)CCc1ccccc1` (stereo unspecified), the inhibition is reported as -0.529% (inactive).
With `O=C(Nc1ccccc1)ON=C1c2ccccc2-c2ccccc21` the inhibition was 17.2% (inactive).
For `COc1ccc(-c2cnnc(N/N=C/c3ccc(O)c(O)c3)n2)cc1`, the inhibition was 3.96% (inactive).
For `COc1ccc(Nc2cc(C)nc(-n3nc(C)cc3C)n2)cc1`, the inhibition was 3.67% (inactive).
In the case of `COc1cc2c(cc1OC)-c1c(OC)c(OC)c(OC)c3ccnc(c13)C2=O`, the inhibition is reported as 10.4% (inactive).
For `CCN(CC)c1ccc(NC(=O)COc2ccccc2C#N)cc1S(=O)(=O)Nc1ccc(OC)cc1`, the inhibition was -2.22% (inactive).
With `Cc1c(C(=O)NCc2cccnc2)sc2nc(-c3ccc(F)cc3)cn12` the inhibition was -3.04% (inactive).
For `O=C(NCCOC(=O)c1ccc(C(=O)OCCNC(=O)c2cccnc2)s1)c1cccnc1`, the inhibition was -5.26% (inactive).
In the case of `CN(C)c1ccc(/C=C2\SC(=S)N(Nc3ncc(C(F)(F)F)cc3Cl)C2=O)cc1`, the inhibition is reported as 4.05% (inactive).
Compound `CCC1=NNc2cccc3c(OC)ccc1c23` has an inhibition of 89.7%.
`O=C(Nc1ccc(CN2CCOCC2)cc1)c1ccc(-c2cccc(Cl)c2)o1` gave an inhibition of 52.6%.
With `c1ccc(-c2n[nH]c3ccccc23)cc1` the inhibition was 11.3% (inactive).
For `CCOC(=O)N1CCC(N2CCN(S(=O)(=O)CC)CC2)CC1`, the inhibition was -3.7% (inactive).
With `C=CCn1c(SC(C)C(=O)NCc2ccc3c(c2)OCO3)nnc1C1CCCCC1` (stereo unspecified) the inhibition was -1.58% (inactive).
In the case of `O=C(Nc1ccc(Cl)cc1)OCc1cn(-c2ccc(Cl)cc2)nn1`, the inhibition is reported as -2.52% (inactive).
With `O=C1c2ccccc2-c2onc3ccc(NCc4ccco4)c1c23` the inhibition was 32.1% (inactive).
With `O=C(CN1CCCC1)Nc1c2c(nc3ccccc13)N(Cc1ccccc1)CC2` the inhibition was -4.44% (inactive).
With `CC(C)CCN1CN(S(=O)(=O)c2cccs2)c2nc3ccccc3nc21` the inhibition was -0.214% (inactive).
For `COc1ccc(C2C(C(=O)c3cccs3)=C(O)C(=O)N2c2nncs2)cc1` (stereo unspecified), the inhibition was 35.1% (inactive).
In the case of `CCCNC(=O)CN(c1ccc(F)cc1)S(=O)(=O)c1ccc2c(c1)OCCO2`, the inhibition is reported as -8.66% (inactive).
For `CCCCn1c(=O)[nH]c2nc3cc(N)ccc3nc2c1=O`, the inhibition was 31.1% (inactive).
In the case of `O=C1CCCc2c1cc(C(=O)NCc1ccco1)c(=O)n2-c1ccccc1`, the inhibition is reported as -5.46% (inactive).
For `COCC(C)n1c(C)cc(C(=O)COC(=O)c2nc3nc(C)cc(C)n3n2)c1C` (stereo unspecified), the inhibition was -2.8% (inactive).
With `Nc1nnc(SCCCC(=O)c2ccc(F)cc2)s1` the inhibition was 26.1% (inactive).
For `COc1cc(C2=NOC(C(=O)NCc3ccco3)C2)cc(OC)c1OC` (stereo unspecified), the inhibition was -3.78% (inactive).
`CS(=O)(=O)N1CCN(c2ccccc2NC(=O)c2ccc(Br)o2)CC1` gave an inhibition of 96.2%.
With `Cc1cc(Nc2cccc(F)c2)nc(NCc2ccccc2)n1` the inhibition was 1.99% (inactive).
For `Cc1cc(N=CC2=C(O)CC(C)(C)CC2=O)no1`, the inhibition was -1.85% (inactive).
In the case of `CCn1c(CSc2ncccn2)nnc1SCC(=O)N1CCc2ccccc21`, the inhibition is reported as -1.28% (inactive).
With `O=C1NCCCc2c1oc1ccc(O)cc21` the inhibition was 96.2%.
